In PubChem BioAssay (NCI):
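Following 48 hours of exposure in 96-well plates, responses at five concentrations were used to interpolate endpoints linearly. The concentration for full growth arrest is given as TGI.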

Legend:
Assay in all cases: inhibition of tumour cell growth, NCI panel, 48 h
[1] = tested on: 786-0 renal
[2] = tested on: A498 renal
[3] = tested on: A549 NSCLC
[4] = tested on: ACHN renal
[5] = tested on: CAKI-1 renal
[6] = tested on: CCRF-CEM leukemia
[7] = tested on: COLO 205 colon
[8] = tested on: DLD-1 colon
[9] = tested on: DMS 114 small cell lung
[10] = tested on: DMS 273 small cell lung
[11] = tested on: EKVX NSCLC
[12] = tested on: HCC-2998 colon
[13] = tested on: HCT-116 colon
[14] = tested on: HCT-15 colon
[15] = tested on: HL-60(TB) leukemia
[16] = tested on: HOP-18 NSCLC
[17] = tested on: HOP-62 NSCLC
[18] = tested on: HOP-92 NSCLC
[19] = tested on: HT29 colon
[20] = tested on: IGROV1 ovarian
[21] = tested on: K-562 leukemia
[22] = tested on: KM12 colon
[23] = tested on: KM20L2 colon
[24] = tested on: LOX IMVI melanoma
[25] = tested on: LXFL 529 NSCLC
[26] = tested on: M14 melanoma
[27] = tested on: M19-MEL melanoma
[28] = tested on: MALME-3M melanoma
[29] = tested on: MOLT-4 leukemia
[30] = tested on: NCI-H226 lung
[31] = tested on: NCI-H23 lung
[32] = tested on: NCI-H460 lung
[33] = tested on: NCI-H522 lung
[34] = tested on: OVCAR-3 ovarian
[35] = tested on: OVCAR-4 ovarian
[36] = tested on: OVCAR-5 ovarian
[37] = tested on: OVCAR-8 ovarian
[38] = tested on: RPMI-8226 leukemia
[39] = tested on: RXF 393 renal
[40] = tested on: SF-268 CNS
[41] = tested on: SF-295 CNS
[42] = tested on: SK-MEL-2 melanoma
[43] = tested on: SK-MEL-28 melanoma
[44] = tested on: SK-MEL-5 melanoma
[45] = tested on: SK-OV-3 ovarian
[46] = tested on: SN12C renal
[47] = tested on: SNB-19 CNS
[48] = tested on: SNB-75 CNS
[49] = tested on: SNB-78 CNS
[50] = tested on: SW-620 colon
[51] = tested on: TK-10 renal
[52] = tested on: U251 CNS
[53] = tested on: UACC-257 melanoma
[54] = tested on: UACC-62 melanoma
[55] = tested on: UO-31 renal

Measured: TGI

CCOC(=O)/C=C1/Oc2ccccc2C1(C)O (stereo not given)
> 100 µM: all assays above
